Assay results from ChEMBL document CHEMBL1121530, “Potential carcinostatics. 4. Synthesis and biological properties of erythro- and threo-beta-fluoroaspartic acid and erythro-beta-fluoroasparagine” (J Med Chem, 1980).
Activity calls are given as the source filed them. No cut-off for these calls is given here.

How the values were obtained:
[1] = tested on: L5178Y; test: Tested in vivo for antileukemic activity in the asparagine dependent L5178Y lymphatic leukemia cells in mice up to intraperitoneal doses 40 mg/kg; NA = no antitumor activity; assay type: functional, organism-based; design: dose 40 mg/kg; settings: Mus musculus
[2] = tested on: L5178Y; test: Tested in vivo for antileukemic activity in the asparagine dependent L5178Y lymphatic leukemia cells in mice up to intraperitoneal doses 100 mg/kg; NA = no antitumor activity; assay type: functional, organism-based; design: dose 100 mg/kg; settings: Mus musculus

Q: With NC(C(=O)O)C(F)C(=O)O (configuration not stated) as the compound, how does the Activity [1] read?
A: inactive

Q: Which Activity [2] does the source give for NC(=O)C(F)C(N)C(=O)O (configuration not stated) here?
A: inactive
